From ChEMBL document CHEMBL1138919, “Binding of methoxy-substituted N1-benzenesulfonylindole analogs at human 5-HT6 serotonin receptors” (Bioorg Med Chem Lett, 2006)

Biological target: 5-hydroxytryptamine receptor 6 (Homo sapiens, UniProt P50406)
Assay: Binding affinity to human 5HT6 receptor

Chain of 5-hydroxytryptamine receptor 6 (P50406 whole entry): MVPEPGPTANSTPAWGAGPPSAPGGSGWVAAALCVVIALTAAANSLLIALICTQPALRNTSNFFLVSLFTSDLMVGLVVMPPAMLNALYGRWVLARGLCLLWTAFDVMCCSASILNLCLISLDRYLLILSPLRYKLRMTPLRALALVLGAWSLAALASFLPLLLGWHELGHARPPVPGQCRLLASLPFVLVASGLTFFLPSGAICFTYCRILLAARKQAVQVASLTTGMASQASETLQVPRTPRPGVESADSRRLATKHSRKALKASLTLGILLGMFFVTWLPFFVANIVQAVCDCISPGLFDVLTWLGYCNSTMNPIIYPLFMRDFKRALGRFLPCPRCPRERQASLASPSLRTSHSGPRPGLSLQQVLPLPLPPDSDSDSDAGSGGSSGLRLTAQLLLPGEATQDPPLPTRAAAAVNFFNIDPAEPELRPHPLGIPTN

SMILES | Ki
COc1ccc2ccn(S(=O)(=O)c3ccc(N)cc3)c2c1 | 1.8 nM
COc1cc(OC)c2ccn(S(=O)(=O)c3ccc(N)cc3)c2c1 | 0.8 nM
CNc1ccc2c3c(n(S(=O)(=O)c4ccc(N)cc4)c2c1)CCCC3 | 205 nM
CNc1cccc2c1c1c(n2S(=O)(=O)c2ccc(N)cc2)CCCC1 | 165 nM
COc1cc(OC)c2c3c(n(S(=O)(=O)c4ccc(N)cc4)c2c1)CCCC3 | 210 nM
COc1cccc2c1ccn2S(=O)(=O)c1ccc(N)cc1 | 3.3 nM
